Experimental data from US10499641B2 (priority 2010, dated 2019).

Assays:
Plasmopara viticola = experiment: Plasmopara test (grapevine)/protective; format: in vivo; details: young grapevine plants, sprayed, active ingredient concentration 10 ppm, evaluation 6 days after inoculation; 100% = no infection
Experimental: Plasmopara Test (Grapevine)/Protective
• Solvent: 24.5 parts by weight of acetone • 24.5 parts by weight of dimethylacetamide • Emulsifier: 1 part by weight of alkylaryl polyglycol ether
[To produce an appropriate active ingredient formulation, 1 part by weight of active ingredient is mixed with the specified amounts of solvent and emulsifier, and the concentrate is diluted with water to the desired concentration.
To test for protective efficacy, young plants are sprayed with the active ingredient formulation at the stated application rate. After the spray coating has dried on, the plants are inoculated with an aqueous spore suspension of Plasmopara viticola and then remain in an incubation cabin at approx. 20° C. and 100% relative air humidity for 1 day. Subsequently, the plants are placed in a greenhouse at approx. 21° C. and approx. 90% air humidity for 4 days. The plants are then moistened and placed in an incubation cabin for 1 day.
Evaluation follows 6 days after the inoculation. 0% means an efficacy which corresponds to that of the control, whereas an efficacy of 100% means that no infection is observed.
In this test, the following inventive compounds show, at an active ingredient concentration of 10 ppm, an efficacy of 70% or more: […]

Phytophthora infestans = format: in vivo; details: young tomato plants, sprayed, active ingredient concentration 100 ppm, inoculated 1 day after treatment, evaluation 7 days after inoculation; 100% = no infection

| Compound | Eff. % (Plasmopara viticola) | Eff. % (Phytophthora infestans) |
| --- | --- | --- |
| CCON=C(C)c1cccc(C2CC(c3csc(C4CCN(C(=O)Cn5nc(C(F)F)cc5C(F)F)CC4)n3)=NO2)c1 (mixture of isomers) [Example I-5] | 87% | 100% |
| Cc1cc(C(F)(F)F)nn1CC(=O)N1CCC(c2nc(C3=NOC(c4cccc(C=NO)c4)C3)cs2)CC1 (mixture of isomers) [Example I-10] | 92% | 100% |
| Cc1ccc(Cl)cc1NC(=O)N1CCC(c2nc(C3=NOC(c4cccc(C=NO)c4)C3)cs2)CC1 (mixture of isomers) [Example I-14] | 100% | 100% |
| CON=Cc1cccc(C2CC(c3csc(C4CCN(C(=O)Cn5nc(C(F)(F)F)cc5C)CC4)n3)=NO2)c1 (mixture of isomers) [Example I-15] | 81% | 100% |
| CON=Cc1cccc(C2CC(c3csc(C4CCN(C(=O)Cn5nc(C(F)F)cc5C(F)F)CC4)n3)=NO2)c1 (mixture of isomers) [Example I-16] | 94% |  |
| CC(=NO)c1cccc(C2CC(c3csc(C4CCN(C(=O)Cn5nc(C(F)F)cc5C(F)F)CC4)n3)=NO2)c1 (mixture of isomers) [Example I-18] | 100% | 100% |
| CON=Cc1cccc(C2CC(c3csc(C4CCN(C(=O)Nc5cc(Cl)ccc5C)CC4)n3)=NO2)c1 (mixture of isomers) [Example I-19] | 100% | 100% |
| CON=C(C)c1cccc(C2CC(c3csc(C4CCN(C(=O)Cn5nc(C(F)F)cc5C(F)F)CC4)n3)=NO2)c1 (mixture of isomers) [Example I-21] | 100% | 100% |
| O=C(Cn1nc(C(F)F)cc1C(F)F)N1CCC(c2nc(C3=NOC(c4cccc(C=NO)c4)C3)cs2)CC1 (mixture of isomers) [Example I-22] | 100% | 100% |
| CON=C(C)c1cccc(C2CC(c3csc(C4CCN(C(=O)Nc5cc(Cl)ccc5C)CC4)n3)=NO2)c1 (mixture of isomers) [Example I-23] | 98% | 100% |
| CCON=Cc1ccccc1C1CC(c2csc(C3CCN(C(=O)Cn4nc(C(F)F)cc4C(F)F)CC3)n2)=NO1 (mixture of isomers) [Example I-27] | 99% | 100% |
| CON=C(C)c1ccccc1C1CC(c2csc(C3CCN(C(=O)Cn4nc(C(F)(F)F)cc4C)CC3)n2)=NO1 (mixture of isomers) [Example I-31] | 97% | 100% |
| CON=C(C)c1ccccc1C1CC(c2csc(C3CCN(C(=O)Cn4nc(C(F)F)cc4C(F)F)CC3)n2)=NO1 (mixture of isomers) [Example I-32] | 85% | 100% |
| O=C(Cn1nc(C(F)F)cc1C(F)F)N1CCC(c2nc(C3=NOC(c4ccccc4C=NO)C3)cs2)CC1 (mixture of isomers) [Example I-35] | 100% | 95% |
| Cc1ccc(Cl)cc1NC(=O)N1CCC(c2nc(C3=NOC(c4ccccc4C=NO)C3)cs2)CC1 (mixture of isomers) [Example I-36] | 100% | 100% |
| CON=C(C)c1cccc(C2CC(c3csc(C4CCN(C(=O)Cn5nc(C(F)(F)F)cc5C)CC4)n3)=NO2)c1 (centres unmarked) [Example I-3] | 97% | 100% |
| CC(=NO)c1cccc(C2CC(c3csc(C4CCN(C(=O)Cn5nc(C(F)(F)F)cc5C)CC4)n3)=NO2)c1 (centres unmarked) [Example I-7] | 100% | 100% |
| CC(=O)Nc1ccc(C2CC(c3csc(C4CCN(C(=O)Cn5nc(C(F)F)cc5C(F)F)CC4)n3)=NO2)cc1 (centres unmarked) [Example I-25] | 97% |  |
| CON=Cc1ccccc1C1CC(c2csc(C3CCN(C(=O)Cn4nc(C(F)F)cc4C(F)F)CC3)n2)=NO1 (centres unmarked) [Example I-26, 2-{3-[2-(1-{[3,5-Bis(difluoromethyl)-1H-pyrazol-1-yl]acetyl}piperidin-4-yl)-1,3-thiazol-4-yl]-4,5-dihydro-1,2-oxazol-5-yl}benzaldehyde O-methyloxime] | 100% | 100% |
| CCON=Cc1ccccc1C1CC(c2csc(C3CCN(C(=O)Cn4nc(C(F)(F)F)cc4C)CC3)n2)=NO1 (centres unmarked) [Example I-29] | 90% | 100% |
| CON=Cc1ccccc1C1CC(c2csc(C3CCN(C(=O)Cn4nc(C(F)(F)F)cc4C)CC3)n2)=NO1 (centres unmarked) [Example I-34] | 87% | 100% |
| CON=Cc1ccccc1C1CC(c2csc(C3CCN(C(=O)Nc4cc(Cl)ccc4C)CC3)n2)=NO1 (centres unmarked) [Example I-41, N-(5-Chloro-2-methylphenyl)-4-[4-(5-{2-[(methoxyimino)methyl]phenyl}-4,5-dihydro-1,2-oxazol-3-yl)-1,3-thiazol-2-yl]piperidine-1-carboxamide] | 81% | 100% |
| C#CCOCc1ccccc1C1CC(c2csc(C3CCN(C(=O)Cn4nc(C(F)(F)F)cc4C)CC3)n2)=NO1 (centres unmarked) [Example I-46] | 94% | 94% |

| Compound | Eff. % (Plasmopara viticola) | Eff. % (Phytophthora infestans) |
| --- | --- | --- |
| CC(=O)OCc1ccccc1C1CC(c2csc(C3CCN(C(=O)Cn4nc(C(F)(F)F)cc4C)CC3)n2)=NO1 (centres unmarked) [Example I-47] | 90% | 94% |
| C#CCOCc1ccccc1C1CC(c2csc(C3CCN(C(=O)Cn4nc(C(F)F)cc4C(F)F)CC3)n2)=NO1 (centres unmarked) [Example I-53] | 96% | 94% |
| Cc1ccc(Cl)cc1NC(=O)N1CCC(c2nc(C3=NOC(c4c(Cl)cccc4OS(C)(=O)=O)C3)cs2)CC1 (centres unmarked) [Example I-54] | 100% | 94% |
| CC(=O)OCc1ccccc1C1CC(c2csc(C3CCN(C(=O)Cn4nc(C(F)F)cc4C(F)F)CC3)n2)=NO1 (centres unmarked) [Example I-55] | 92% | 94% |
| COCCS(=O)(=O)Cc1ccccc1C1CC(c2csc(C3CCN(C(=O)Cn4nc(C(F)F)cc4C(F)F)CC3)n2)=NO1 (centres unmarked) [Example I-57] | 90% | 94% |
| N#CCOc1ccccc1C1CC(c2csc(C3CCN(C(=O)Cn4nc(C(F)F)cc4C(F)F)CC3)n2)=NO1 (centres unmarked) [Example I-63] | 100% | 94% |
| O=C(Cn1nc(C(F)F)cc1C(F)F)N1CCC(c2nc(C3=NOC(c4ccccc4OS(=O)(=O)C4CC4)C3)cs2)CC1 (centres unmarked) [Example I-64] | 100% | 100% |
| Cc1ccc(C)c(NC(=O)N2CCC(c3nc(C4=NOC(c5ccccc5OS(C)(=O)=O)C4)cs3)CC2)c1 (centres unmarked) [Example I-74] | 100% | 100% |
| N#CCOc1cccc(Cl)c1C1CC(c2csc(C3CCN(C(=O)Cn4nc(C(F)F)cc4C(F)F)CC3)n2)=NO1 (centres unmarked) [Example I-75] | 100% |  |
| Cc1cc(C(F)F)nn1CC(=O)N1CCC(c2nc(C3=NOC(c4ccccc4OCC#N)C3)cs2)CC1 (centres unmarked) [Example I-76] | 93% | 100% |
| CCS(=O)(=O)Oc1cccc(C2CC(c3csc(C4CCN(C(=O)Cn5nc(C(F)F)cc5C(F)F)CC4)n3)=NO2)c1 (centres unmarked) [Example I-77] | 93% | 98% |
| Cc1cc(C(F)(F)F)nn1CC(=O)N1CCC(c2nc(C3=NOC(c4c(Cl)cccc4OCC#N)C3)cs2)CC1 (centres unmarked) [Example I-78] | 97% | 80% |
| N#CCOc1ccc(C2CC(c3csc(C4CCN(C(=O)Cn5nc(C(F)F)cc5C(F)F)CC4)n3)=NO2)cc1 (centres unmarked) [Example I-81] | 99% | 100% |
| C/C=C/C(=O)Oc1ccccc1C1CC(c2csc(C3CCN(C(=O)Cn4nc(C(F)F)cc4C(F)F)CC3)n2)=NO1 (centres unmarked) [Example I-82] | 94% | 70% |
| O=C(Cn1nc(C(F)F)cc1C(F)F)N1CCC(c2nc(C3=NOC(c4cccc(OS(=O)(=O)C5CC5)c4)C3)cs2)CC1 (centres unmarked) [Example I-83] | 94% | 98% |
| O=C(Cn1nc(C(F)F)cc1C(F)F)N1CCC(c2nc(C3=NOC(c4cc(F)ccc4OS(=O)(=O)C4CC4)C3)cs2)CC1 (centres unmarked) [Example I-84] | 100% | 90% |
| CS(=O)(=O)Oc1c(F)cccc1C1CC(c2csc(C3CCN(C(=O)Cn4nc(C(F)F)cc4C(F)F)CC3)n2)=NO1 (centres unmarked) [Example I-85] | 100% | 75% |
| Cc1cc(C(F)(F)F)nn1CC(=O)N1CCC(c2nc(C3=NOC(c4c(F)cccc4OCC#N)C3)cs2)CC1 (centres unmarked) [Example I-86] | 99% | 75% |
| N#CCCn1cccc1C1CC(c2csc(C3CCN(C(=O)Cn4nc(C(F)F)cc4C(F)F)CC3)n2)=NO1 (centres unmarked) [Example I-87] | 95% | 80% |
| CS(=O)(=O)Oc1cccc(Cl)c1C1CC(c2csc(C3CCN(C(=O)Cn4nc(C(F)F)cc4C(F)F)CC3)n2)=NO1 (centres unmarked) [Example I-102] | 100% | 75% |
| Cc1cc(C(F)(F)F)nn1CC(=O)N1CCC(c2nc(C3=NOC(c4c(Cl)cccc4OS(C)(=O)=O)C3)cs2)CC1 (centres unmarked) [Example I-103] | 100% | 80% |
| O=CNc1ccccc1C1CC(c2csc(C3CCN(C(=O)Cn4nc(C(F)F)cc4C(F)F)CC3)n2)=NO1 (centres unmarked) [Example I-108] | 93% | 100% |
| CSCOc1ccccc1C1CC(c2csc(C3CCN(C(=O)Cn4nc(C(F)F)cc4C(F)F)CC3)n2)=NO1 (centres unmarked) [Example I-112] | 100% | 94% |
